Laboratory results as given in paper PMC11731258, “The structural basis for high-affinity c-di-GMP binding to the GSPII-B domain of the traffic ATPase PilF from Thermus thermophilus” (The Journal of Biological Chemistry, 2024).
“And” between values parts separate entries of the source, which are not always exact repeats. Equal values may be shown once. Read-outs that look alike come from different tables or passages of the source.

Experiments:
[1] = target: T1, PilF1-889 (full-length PilF) (Thermus thermophilus, UniProt Q5SLC9); assay: ITC c-di-GMP binding to full-length PilF; settings: 20 °C; for Kd: pH 7.5, two-site model
T1 sequence (Q5SLC9 1-889): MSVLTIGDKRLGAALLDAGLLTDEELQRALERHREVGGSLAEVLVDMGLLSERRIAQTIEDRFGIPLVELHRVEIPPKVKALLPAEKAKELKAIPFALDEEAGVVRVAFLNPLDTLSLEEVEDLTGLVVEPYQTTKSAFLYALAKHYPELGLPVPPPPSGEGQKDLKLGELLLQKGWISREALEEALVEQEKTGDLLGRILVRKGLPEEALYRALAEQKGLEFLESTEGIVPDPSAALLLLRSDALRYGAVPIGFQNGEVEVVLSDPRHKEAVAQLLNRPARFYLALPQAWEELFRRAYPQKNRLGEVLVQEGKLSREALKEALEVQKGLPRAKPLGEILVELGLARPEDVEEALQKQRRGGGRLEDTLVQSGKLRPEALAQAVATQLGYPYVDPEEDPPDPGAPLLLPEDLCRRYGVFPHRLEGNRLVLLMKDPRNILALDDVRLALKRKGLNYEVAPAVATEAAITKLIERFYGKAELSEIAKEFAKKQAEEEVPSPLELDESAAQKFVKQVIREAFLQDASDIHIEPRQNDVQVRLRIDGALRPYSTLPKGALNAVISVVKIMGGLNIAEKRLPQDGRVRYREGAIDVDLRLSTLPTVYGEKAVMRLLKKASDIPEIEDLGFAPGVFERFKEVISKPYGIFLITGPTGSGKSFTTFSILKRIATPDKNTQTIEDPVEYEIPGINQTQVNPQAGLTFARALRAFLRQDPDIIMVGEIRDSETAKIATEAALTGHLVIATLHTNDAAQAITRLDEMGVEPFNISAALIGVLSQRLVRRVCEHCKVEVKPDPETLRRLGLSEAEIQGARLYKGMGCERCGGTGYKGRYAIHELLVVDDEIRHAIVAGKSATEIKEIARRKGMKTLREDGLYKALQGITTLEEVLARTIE
Description: (§1) To assess the ligand-binding capabilities of the various PilF constructs, triplicates of ITC measurements were recorded for each construct. The measurements were carried out using a MicroCal ITC200 (Malvern Panalytical). All ITC experiments were conducted at 20 °C with 50 mM Tris-HCl pH 7.5, 200 mM sodium chloride, 1 mM β-mercaptoethanol as the sample buffer. All protein samples were extensively dialyzed against the sample buffer and the buffer used for dialysis was used to dilute protein and c-di-GMP samples in preparation for the ITC measurements. Each measurement was conducted using the following protocol. In total, 39.8 μl c-di-GMP were titrated to 270 μl protein in 20 separate injections in 180 s intervals with a stirring speed of 750 rpm. After an initial delay of 120 s, the first injection of 0.2 μl c-di-GMP with a duration of 0.4 s was followed by 19 injections of 2 μl with a duration of 4 s. During the measurement, the feedback mode was set to high and the reference power to 11 μcal s^−1. To optimize precision of the measurements, protein and c-di-GMP concentrations were adjusted to the binding capabilities of the respective constructs and ranged from 5 to 200 μM for protein and 50 to 2000 μM for c-di-GMP. All thermograms were processed using Origin 7.0 (OriginLab) using a one-site– or two-site–binding model dependent on the number of expected binding events.

[2] = target: MshEN (N-terminal domain of ATPase MshE); parameters: method as in PMID 27578558; settings: full length MshEN; cited from earlier work
[3] = target: T2, PilF159-302 D266A (Thermus thermophilus, UniProt Q5SLC9, D266A); assay: ITC binding to PilF159-302 D266A; settings: 20 °C
T2 sequence (Q5SLC9 159-302 D266A): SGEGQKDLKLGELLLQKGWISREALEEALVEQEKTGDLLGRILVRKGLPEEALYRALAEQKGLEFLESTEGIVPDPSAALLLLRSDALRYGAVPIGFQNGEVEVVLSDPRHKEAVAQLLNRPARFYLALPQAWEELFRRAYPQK
Description: as §1

[4] = target: T3, PilF159-302 (GSPII-B domain) (Thermus thermophilus, UniProt Q5SLC9); assay: ITC binding to PilF159-302; settings: for N / ΔH / ΔS / Kd: ITC
T3 sequence (Q5SLC9 159-302): T2 sequence (Q5SLC9 159-302 D266A)
Description: as §1, with “All ITC experiments were conducted at 20 °C with 50 mM Tris-HCl pH 7.5, 200 mM sodium chloride, 1 mM β-mercaptoethanol as the sample buffer.” left out

[5] = target: degenerate EAL-domain of FimX; parameters: method as in PMID 19679088; settings: cited from earlier work
[6] = target: T4, PilF159-302 L196R (Thermus thermophilus, UniProt Q5SLC9, L196R); assay: ITC binding to PilF159-302 L196R; settings: 20 °C
T4 sequence (Q5SLC9 159-302 L196R): T2 sequence (Q5SLC9 159-302 D266A)
Description: as §1

[7] = target: PilZ domain of PlzD; parameters: method as in PMID 18034161; settings: cited from earlier work
[8] = target: PilB2; parameters: method as in PMID 27578558, PMID 31868878; settings: cited from earlier work

With Nc1nc2c(ncn2[C@@H]2O[C@@H]3COP(=O)(O)O[C@H]4[C@@H](O)[C@H](n5cnc6c(=O)[nH]c(N)nc65)O[C@@H]4COP(=O)(O)O[C@H]3[C@H]2O)c(=O)[nH]1 [c-di-GMP, cyclic dimeric guanosine monophosphate] the “ΔH, site 1” value ([1]; Table S1 site 1) was -11.763 ± 0.78 kcal/mol, the “ΔS, site 1” value ([1]; Table S1 site 1) was -10.4 ± 2.7 cal/mol/deg and the “N, site 1” value ([1]; Table S1 site 1 (low affinity)) was 0.72 ± 0.10. For the same molecule, the “ΔH, site 2” value ([1]; Table S1 site 2) was -15.683 ± 0.97 kcal/mol, the “ΔS, site 2” value ([1]; Table S1 site 2) was -16.5 ± 2.2 cal/mol/deg and the “N, site 2” value ([1]; Table S1 site 2 (high affinity)) was 0.59 ± 0.03. The Kd ([1]; read-out: KD, high-affinity site (KD1 in text and Fig. 1C; site 2 in Table S1)) was 10 ± 5 nM, the Kd ([1]; read-out: KD, low-affinity site (KD2 in text and Fig. 1C; site 1 in Table S1)) was 324 ± 2 nM and the Kd [2] was ~500 nM and 500 nM. It also gave an N [3] of 0.95 ± 0.05, a ΔH [3] of -9.995 ± 0.161 kcal/mol and a ΔS [3] of 0.6 ± 0.4 cal/mol/deg. The Kd ([3]; pH 7.5) was 27 ± 2 nM, the “fold higher affinity than MshEN” value ([4]; GSPII-B (KD 6 nM) vs MshEN (KD 500 nM)) was 83 fold and the N ([4]; 20 °C) was 0.66 ± 0.02. It also gave a ΔH ([4]; 20 °C) of -10.795 ± 1.145 kcal/mol, a ΔS ([4]; 20 °C) of -0.8 ± 4.0 cal/mol/deg and an N ([4]; 45 °C) of 0.88 ± 0.11. For the same molecule, the ΔH ([4]; 45 °C) was -13.327 ± 1.389 kcal/mol, the ΔS ([4]; 45 °C) was -6.6 ± 4.2 cal/mol/deg and the Kd ([4]; 20 °C, pH 7.5) was 6 nM. The Kd ([4]; 45 °C) was 20 nM, the “increase in the free enthalpy of binding compared to MshEN” value ([4]; at 20 °C) was about 2.7 kcal/mol and the Kd [5] was 100 to 200 nM. The N [6] was 1.23 ± 0.03, the ΔH [6] was -8.148 ± 0.209 kcal/mol and the ΔS [6] was 7.1 ± 0.8 cal/mol/deg. The Kd ([6]; pH 7.5) was 23 ± 2 nM, the Kd [7] was 100 to 300 nM and the Kd [8] was 13.5 nM.
